Results from ChEMBL document CHEMBL1201862, “PubChem BioAssay data set” (2004).
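Compound exposure: 48 hours, 5 concentrations, 96-well plates. Here, GI50 denotes the concentration required for 50% inhibition of growth.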 The source made the active and inactive calls. Rule as the data show it: active = GI50 up to about 1.1 µM and inactive = higher.

How the values were obtained:
Assay in all cases: inhibition of tumour cell growth, NCI panel, 48 h
[1] = test system: MDA-MB-231
[2] = test system: OVCAR-3
[3] = test system: Malme-3M
[4] = test system: COLO 205
[5] = test system: A498
[6] = test system: M14
[7] = test system: SR
[8] = test system: NCI-H23
[9] = test system: Hs-578T
[10] = test system: MDA-MB-435
[11] = test system: U-251
[12] = test system: NCI-H226
[13] = test system: UACC-257
[14] = test system: ACHN
[15] = test system: OVCAR-8
[16] = test system: OVCAR-4
[17] = test system: HOP-62
[18] = test system: HCT-116
[19] = test system: MDA-N
[20] = test system: SW-620

Measured: GI50

O=[N+]([O-])c1ccc2nc(O)c(/C=C(\O)c3ccccc3)nc2c1
inactive: [1] 3.57 µM | [2] 27.9 µM | [3] 55.8 µM | [4] > 100 µM | [5] 12.5 µM | [6] > 100 µM | [7] 17.9 µM | [8] 17.2 µM | [9] 2.23 µM | [10] 35.2 µM | [11] 5.42 µM | [12] 17.6 µM | [13] > 100 µM | [14] 26.4 µM | [15] 11.5 µM | [16] 2.86 µM | [17] 5.52 µM | [18] 13.7 µM | [19] 93.5 µM

C=CC(c1ccccc1)C1(O)c2cccc(O)c2C(=O)c2c(O)cccc21 (configuration not stated)
inactive: [1] 18.3 µM | [2] 18 µM | [5] 19.6 µM | [6] 18.4 µM | [7] 5.89 µM | [8] 13.4 µM | [20] 15.1 µM | [9] 15.8 µM | [10] 4.01 µM | [11] 11.7 µM | [12] 19.4 µM | [13] 17.8 µM | [14] 17.8 µM | [15] 19.7 µM | [16] 13.7 µM | [17] 17.3 µM | [18] 11.5 µM | [19] 5.57 µM

O=C(O)C1C(C(=O)O)C(C(=O)O)C1C(=O)O (configuration not stated)
inactive: [1] > 100 µM | [2] > 100 µM | [3] > 100 µM | [4] > 100 µM | [5] > 100 µM | [6] > 100 µM | [7] 28.9 µM | [8] > 100 µM | [20] > 100 µM | [9] > 100 µM | [10] > 100 µM | [11] > 100 µM | [12] > 100 µM | [13] > 100 µM | [14] > 100 µM | [15] > 100 µM | [16] > 100 µM | [17] > 100 µM | [18] > 100 µM | [19] > 100 µM

CSc1nc(C)cc(Nc2ccc(O)c(CN3CCOCC3)c2)n1
inactive: [1] > 100 µM | [2] > 100 µM | [3] > 100 µM | [4] > 100 µM | [5] > 100 µM | [6] > 100 µM | [7] > 100 µM | [8] > 100 µM | [20] > 100 µM | [9] > 100 µM | [10] > 100 µM | [11] > 100 µM | [12] > 100 µM | [13] > 100 µM | [14] > 100 µM | [15] > 100 µM | [16] > 100 µM | [17] > 100 µM | [18] > 100 µM | [19] > 100 µM

O=C1/C(=C/c2ccc(Br)s2)NC(=S)N1CN1CCOCC1
inactive: [1] 99.8 µM | [2] 59.3 µM | [3] > 100 µM | [4] 33 µM | [5] 35.9 µM | [7] 21.5 µM | [8] 36.3 µM | [20] 36.4 µM | [9] 65.3 µM | [10] 56.9 µM | [11] 43 µM | [12] 34.5 µM | [13] 66.8 µM | [14] 48 µM | [15] 61.5 µM | [16] 61.9 µM | [17] > 100 µM | [18] 31.8 µM | [19] 52 µM

CSc1nc(SC)c2c(C)cn(Cc3ccccc3)c2n1
inactive: [1] > 100 µM | [2] > 100 µM | [3] > 100 µM | [4] > 100 µM | [5] > 100 µM | [6] > 100 µM | [7] 32.4 µM | [8] > 100 µM | [20] > 100 µM | [9] > 100 µM | [10] 33.2 µM | [11] > 100 µM | [12] > 100 µM | [14] > 100 µM | [15] > 100 µM | [16] > 100 µM | [17] > 100 µM | [18] 69.2 µM | [19] 30.3 µM

O=C1/C(=C\c2ccco2)Oc2ccccc21
inactive: [1] > 100 µM | [2] 98.9 µM | [4] > 100 µM | [5] > 100 µM | [6] > 100 µM | [7] 55.2 µM | [8] > 100 µM | [20] > 100 µM | [9] > 100 µM | [10] > 100 µM | [11] > 100 µM | [12] > 100 µM | [13] > 100 µM | [14] > 100 µM | [15] > 100 µM | [16] > 100 µM | [17] > 100 µM | [18] > 100 µM | [19] > 100 µM

Cc1ccc(Nc2nc3[nH]ccc3c(=O)[nH]2)cc1
inactive: [1] 52.7 µM | [2] 33 µM | [3] > 100 µM | [4] > 100 µM | [5] 18.1 µM | [6] > 100 µM | [7] > 100 µM | [8] > 100 µM | [20] > 100 µM | [9] 35.8 µM | [10] > 100 µM | [11] > 100 µM | [12] > 100 µM | [13] > 100 µM | [14] > 100 µM | [15] > 100 µM | [16] > 100 µM | [17] > 100 µM | [18] > 100 µM | [19] > 100 µM

Cc1ccc(S(=O)(=O)/N=C2/N(C)CCCS2(=O)=O)cc1
inactive: [1] 18 µM | [2] > 100 µM | [4] > 100 µM | [5] > 100 µM | [6] > 100 µM | [7] > 100 µM | [8] > 100 µM | [20] > 100 µM | [9] > 100 µM | [10] > 100 µM | [11] > 100 µM | [12] > 100 µM | [13] > 100 µM | [14] > 100 µM | [15] > 100 µM | [16] > 100 µM | [17] > 100 µM | [18] > 100 µM | [19] > 100 µM

CN/C(N)=N/N=C1/C(=O)Nc2ccccc21
inactive: [1] > 100 µM | [3] > 100 µM | [4] > 100 µM | [5] > 100 µM | [6] > 100 µM | [7] > 100 µM | [8] > 100 µM | [20] > 100 µM | [9] > 100 µM | [10] > 100 µM | [11] > 100 µM | [12] > 100 µM | [13] > 100 µM | [14] > 100 µM | [15] > 100 µM | [16] > 100 µM | [17] > 100 µM | [18] > 100 µM | [19] > 100 µM
